From ChEMBL document CHEMBL3272017, “Adrenergic sulfonanilides. 4. Centrally active beta-adrenergic agonists” (J Med Chem, 1976) come the findings set out here.

As a reminder, the ED50 is the dose that gives a 50% effect, or the effect in half of the subjects.

The source made the active and inactive calls. The rule behind the calls is not given here. A value given as a limit tells only on which side of the number the result lay.

For series [1], the system named is Rattus norvegicus. Kind of series: Antagonism of morphine-induced analgesia in rat at 20 mg/kg, sc. It counts as functional.
Series [2] is filed under the species Cavia porcellus. Kind of series: Agonist activity at beta-adrenoceptor in guinea pig tracheal spiral assessed as potency for 75% relaxation of spontaneous contraction relative to soterenol. It counts as tissue-based. The following applies: Trachea.
In series [3] the test system is Mus musculus. Kind of series: Inhibition of reserpine-induced ptosis in po dosed mouse. It counts as functional.
The test system of series [4] is Mus musculus. Kind of series: Reversal of reserpine-induced ptosis in po dosed mouse. It counts as functional. The conditions noted are these: Mus musculus, po; read-out: ED50.
Series [5] deals with Mus musculus. Kind of series: Analgesic activity in sc dosed mouse assessed as reduction in phenylalanine-induced writhing. It counts as functional.
A short description of series [6]: Activity at alpha-adrenoceptor in rat seminal vesicle assessed as potency for producing 50% of that of l-epinephrine-induced contraction relative to soterenol. It counts as tissue-based.
The nature of series [7]: Blockade of alpha-adrenoceptor in rat seminal vesicle relative to phentolamine. It counts as tissue-based.
The species named for series [8] is Rattus norvegicus. As to the kind of experiment: Anorexiant activity in rat by free feeding method relative to d-amphetamine. It counts as functional.
Series [9] relates to Rattus norvegicus. Kind of series: Antagonism of morphine-induced analgesia in sc dosed rat.
The subject of series [10] is Rattus norvegicus. Kind of series: Analgesic activity in sc dosed rat by tail flick test. It counts as functional. (In general: Hot-plate and tail-flick tests time the reaction to a heat stimulus.)
The species named for series [11] is Canis familiaris. As to the kind of experiment: Anorexiant activity in dog by free feeding method relative to d-amphetamine. It counts as functional, Canis lupus familiaris.
Series [12] concerns Rattus norvegicus. Kind of series: Effect on cAMP level in Sprague-Dawley rat liver at 0.3 mg/kg, sc after 30 mins. It counts as functional, organism-based. Also noted: dose 0.3 mg/kg.
Series [13] concerns Rattus norvegicus. As to the kind of experiment: Induction of cAMP level in Sprague-Dawley rat hypothalamus at 0.3 mg/kg, sc after 30 mins. It counts as functional, organism-based. More on the design: dose 0.3 mg/kg. (In general: Cyclic AMP is a second messenger, typically raised through Gs and lowered through Gi signalling.)
Series [14] has as its system Rattus norvegicus. Kind of series: Effect on cAMP level in Sprague-Dawley rat striatum at 0.3 mg/kg, sc after 30 mins. It counts as functional, organism-based. Also noted: dose 0.3 mg/kg.
The test system of series [15] is Rattus norvegicus. Kind of series: Effect on cAMP level in Sprague-Dawley rat cortex at 0.3 mg/kg, sc after 30 mins. It counts as functional, organism-based. Also noted: dose 0.3 mg/kg.
Series [16] deals with Rattus norvegicus. As to the kind of experiment: Induction of cAMP level in Sprague-Dawley rat hypothalamus at 0.3 mg/kg, sc cotreated with 15 mg/kg, sc morphine 30 mins before sacrifice. It counts as functional, organism-based.
For series [17], the system named is Rattus norvegicus. As to the kind of experiment: Effect on cAMP level in Sprague-Dawley rat heart at 0.3 mg/kg, sc after 30 mins. It counts as functional, organism-based. Also noted: dose 0.3 mg/kg.
For series [18], the system named is Rattus norvegicus. As to the kind of experiment: Antagonism of morphine-induced analgesia in rat at 1.2 mg/kg, sc. More on the design: dose 1.2 mg/kg. It counts as functional, organism-based.
Series [19] has as its system Mus musculus. Kind of series: Inhibition of reserpine-induced ptosis in po dosed mouse at 25 mg/kg, po. It counts as functional, organism-based. Also noted: dose 25 mg/kg.
Series [20] is filed under the species Rattus norvegicus. The conditions noted are these: Tail.
Where [21] appears, read: Mus musculus, po, read-out: ED50.
Setting [22] is: Mus musculus, sc, read-out: ED50.

`C[C@H](NC1CC1)[C@H](O)c1ccc(O)c(NS(C)(=O)=O)c1.Cl` (relative stereo): the outcome in series [1] was inactive. For the same compound, the fold change (FC) in series [2] came to 0.11. Moreover, the ED50 in series [3] (setting [21]) was determined as 0.51 mg/kg; in series [4], 0.76 mg/kg.

In the case of `CC[C@H](NC1CC1)[C@H](O)c1ccc(O)c(NS(C)(=O)=O)c1.Cl` (relative stereo), the outcome in [1] was inactive. In addition, the results for the fold change (FC) in series [2], in [6] and in [7] were 0.23, 0 and 0.000045, respectively. For the same compound, the results for the ED50 in series [5] (setting [22]), in [3] (setting [21]) and in series [4] were more than 6 mg/kg, 20 mg/kg and 8.9 mg/kg, respectively.

As to `CS(=O)(=O)Nc1cc(C(O)CNC2CC2)ccc1O.Cl` (stereo in doubt; 46), the ED50 in series [5] is more than 50 mg/kg; in series [3], 31.3 mg/kg. Also, in series [6], the “fold change (FC)” value is reported as 0.

For `CS(=O)(=O)Nc1cc(CCNC2CC2)ccc1O.Cl`, the “fold change (FC)” value turned out to be 5.5 in [8], 0.002 in series [2] and 5.5 in [11]. For the same compound, the median effective dose (ED50) turned out to be 0.21 mg/kg in series [9]; 0.62 mg/kg in series [5] (setting [22]); 2.77 mg/kg in [10]; 3.6 mg/kg in series [3] (setting [21]); 1.5 mg/kg in [4].

With `CN1CC[C@]23c4c5ccc(O)c4O[C@H]2[C@@H](O)C=C[C@H]3[C@H]1C5.CN1CC[C@]23c4c5ccc(O)c4O[C@H]2[C@@H](O)C=C[C@H]3[C@H]1C5.O=S(=O)(O)O`, the ED50 in [5] (setting [22]) was 0.62 mg/kg; in series [10] it was 1.9 mg/kg.

For `CS(=O)(=O)Nc1cc(O)cc(C(O)CNC2CC2)c1.Cl` (centres undefined), in [2], the outcome was inactive. The Activity entry in series [6] is listed as “Not Active”.

As for `Cc1cc(C(O)CNC2CC2)cc(NS(C)(=O)=O)c1O.Cl` (centres undefined), the Activity in series [1] (route subcutaneous) is recorded as 20.8%. In addition, the fold change (FC) in series [2] turned out to be 5.8e-05; in series [6], 8.7. The ED50 in [3] (setting [21]) came out at 0.15 mg/kg; in series [4], 0.67 mg/kg.

Regarding `CS(=O)(=O)Nc1cc(C(O)CNC2CC2)ccc1O.Cl` (stereo in doubt; 44), the “fold change (FC)” value in [8] turned out to be 22; in series [6], 68.8; in [11], 22. The ED50 in series [9] was 0.275 mg/kg; in [5], 0.56 mg/kg; in series [10], 5 mg/kg; in series [3], 0.265 mg/kg; in series [4], 0.255 mg/kg.

In the case of `CCOC(CNC1CC1)c1ccc(O)c(NS(C)(=O)=O)c1.Cl` (centres undefined), the outcome in [1] was inactive. For the same compound, the ED50 is more than 6 mg/kg in series [5] (setting [22]), 35 mg/kg in series [3] (setting [21]) and 9.6 mg/kg in series [4].

With `CS(=O)(=O)Nc1cc(C(O)CNC2(Cc3ccccc3)CC2)ccc1O.Cl` (centres undefined), the ED50 worked out at 4.7 mg/kg in [9], 0.15 mg/kg in series [3] (setting [21]) and 0.32 mg/kg in series [4]. The fold change (FC) in series [2] is 0.14.

As to `CS(=O)(=O)Nc1cc(C(O)CNC2CC2)ccc1O` (stereo in doubt; 44), the result in series [12], in series [14], in series [15] and in series [17] was inactive. Besides, the result in series [13] and in [16] was Active. Further, in [2], the fold change (FC) came out at 0.7.

`CS(=O)(=O)Nc1cc(C(O)CNC2CC2)ccc1O` (single isomer, unassigned; (-)): in series [2], the fold change (FC) came out at 1.9.

For `CN(C)CCCN1c2ccccc2CCc2ccccc21.Cl` [IMIPRAMINE HYDROCHLORIDE], the results for the ED50 in series [3] (setting [21]) and in [4] were 4.97 mg/kg and more than 320 mg/kg, respectively.

The compound `Cl.Oc1ccc(CCNC2CC2)cc1O` came in with an Activity in series [1] (route subcutaneous) of 32.8%. In addition, in [5] (setting [22]), the ED50 was more than 6 mg/kg.

As to `CS(=O)(=O)Nc1cc(C(O)CNC2CC2)ccc1O` (stereo in doubt; 46), the result in series [18] was inactive. Besides, the fold change (FC) in series [2] was found to be 0.0035.

As to `CC(C)(Cc1ccccc1)NCC(O)c1ccc(O)c(NS(C)(=O)=O)c1.Cl` (centres undefined) [ZINTEROL HYDROCHLORIDE], the “fold change (FC)” value worked out at 11 in [8]; 7.9 in [2]; 0 in [6]; 0.1 in [7]; 11 in [11]. The compound further yielded an ED50 in [9] of 18.8 mg/kg. Also, the inhibition entry in series [19] is “inactive”. The ED50 result in series [20] is “inactive”.

For `C=CCN1CC[C@]23c4c5ccc(O)c4O[C@H]2[C@@H](O)C=C[C@H]3[C@H]1C5.Cl` [NALORPHINE HYDROCHLORIDE], the values for the ED50 in series [9] and in series [5] (setting [22]) were 0.37 mg/kg and 2.5 mg/kg, respectively. In series [20], the ED50 result is “inactive”.

`CC(C)(Cc1ccccc1)NCCc1ccc(O)c(NS(C)(=O)=O)c1`: the outcome in [1] was inactive. For the same compound, the fold change (FC) in series [2] came to 0.31.
